# Molecular target: T1, POsterior Segregation (Caenorhabditis elegans, UniProt G5EF15)
# T1 sequence (G5EF15 whole entry): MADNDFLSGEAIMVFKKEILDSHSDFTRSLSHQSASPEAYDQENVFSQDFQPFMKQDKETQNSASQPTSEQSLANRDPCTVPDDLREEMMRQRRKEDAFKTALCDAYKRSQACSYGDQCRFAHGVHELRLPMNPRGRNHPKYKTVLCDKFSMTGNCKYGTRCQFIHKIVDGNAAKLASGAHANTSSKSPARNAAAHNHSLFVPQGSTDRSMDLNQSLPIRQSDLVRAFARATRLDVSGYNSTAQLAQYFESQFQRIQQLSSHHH
# Experiment: inhibitors of POS-1/mex-3 RNA binding, dose response, biochemical, fluorescence polarization (AID 1964)
row,SMILES,EC50
1,"C=CC1=C(C(=O)O)N2C(=O)[C@@H](NC(=O)C(N=O)c3csc(N)n3)[C@H]2SC1 (stereo partly drawn) [(6R,7R)-7-[[2-(2-azanyl-1,3-thiazol-4-yl)-2-hydroxyimino-ethanoyl]amino]-3-ethenyl-8-oxidanylidene-5-thia-1-azabicyclo[4.2.0]oct-2-ene-2-carboxylic acid]",49.8 µM
2,Cc1ncc(C=O)c(CNNC(=O)c2cc(Br)ccc2O)c1O [5-bromanyl-N'-[(Z)-[5-(hydroxymethyl)-2-methyl-3-oxidanylidene-pyridin-4-ylidene]methyl]-2-oxidanyl-benzohydrazide],> 300 µM
3,O=C(/C=C/c1ccco1)NCC(=O)NNC1=c2ccccc2=NC1=O [MLS001075666],13.1 µM
4,"Cc1ccc2oc(=O)c(CC(=O)c3cccs3)nc2c1 [(3Z)-3-[2-keto-2-(2-thienyl)ethylidene]-6-methyl-4H-1,4-benzoxazin-2-one]",21.3 µM
5,CC(=O)Nc1ccc(N=CCC(=O)c2ccc(C)o2)cc1 [MLS000089004],> 300 µM
6,Cc1nnc(=O)[nH]c1N=NCC1C=CC(=O)C([N+](=O)[O-])=C1 (stereo unspecified) [MLS000585487],169 µM
7,Oc1ccc(CN=Nc2ncnc3nc[nH]c23)cc1 [SMR000320358],> 300 µM
8,"C=CCOc1cccc(C2C(C(=O)c3ccc(C)o3)C(=O)C(=O)N2c2nnc(C)s2)c1 (stereo unspecified) [3-(5-methylfuran-2-yl)carbonyl-1-(5-methyl-1,3,4-thiadiazol-2-yl)-4-oxidanyl-2-(3-prop-2-enoxyphenyl)-2H-pyrrol-5-one]",> 300 µM
9,COc1ccc(C(C)N=Nc2nc3ccccc3nc2C)cc1OC (stereo unspecified) [MLS001029936],5.07 µM
10,O=C1C=CC(/C=C/c2nc(O)c([N+](=O)[O-])c(=O)[nH]2)C=C1O (stereo unspecified) [SMR000524347],250 µM
11,"COc1ccc(C(=O)CC=Nc2ccc([N+](=O)[O-])cc2C)cc1OC [(E)-1-(3,4-dimethoxyphenyl)-3-(2-methyl-4-nitro-anilino)prop-2-en-1-one]",54.6 µM
12,"N#CC1=C2CCCCC2C(c2cccnc2)C(C#N)(C#N)C1=N (stereo unspecified) [2-amino-4-(3-pyridinyl)-4a,5,6,7-tetrahydro-4H-naphthalene-1,3,3-tricarbonitrile]",22.2 µM
13,"C=CCc1cccc(C=Nn2cnnc2)c1O [(6E)-2-allyl-6-[(1,2,4-triazol-4-ylamino)methylene]cyclohexa-2,4-dien-1-one]",226 µM
14,"C[C@@H]1O[C@@H](O[C@@H]2[C@@H](O)[C@H](OCCc3ccc(O)c(O)c3)O[C@H](CO)[C@H]2OC(=O)/C=C/c2ccc(O)c(O)c2)[C@H](O)[C@H](O)[C@H]1O [((2R,3R,4R,5R,6R)-6-(3,4-dihydroxyphenethoxy)-5-hydroxy-2-(hydroxymethyl)-4-((2S,3R,4R,5R,6S)-3,4,5-trihydroxy-6-methyltetrahydro-2H-pyran-2-yloxy)tetrahydro-2H-pyran-3-yl) 3-(3,4-dihydroxyphenyl)acrylate]",20.6 µM
15,"CC1(C)CC(=O)C2=C(C1)OC(=N)C(C#N)C2c1ccc(OC(=O)N2CCOCC2)cc1 (stereo unspecified) [4-morpholinecarboxylic acid [4-(2-amino-3-cyano-7,7-dimethyl-5-oxo-6,8-dihydro-4H-1-benzopyran-4-yl)phenyl] ester]",> 300 µM
16,Cc1ccc(Cl)c2c1NC(=O)/C2=C1/NC(=S)NC1=O,14.3 µM
17,"CCn1nc(C)c(C=C2CCCC3=C2OC(=N)C(C#N)C3c2c(C)nn(CC)c2C)c1C (stereo unspecified) [(8E)-2-amino-4-(1-ethyl-3,5-dimethyl-1H-pyrazol-4-yl)-8-[(1-ethyl-3,5-dimethyl-1H-pyrazol-4-yl)methylene]-5,6,7,8-tetrahydro-4H-chromene-3-carbonitrile]",36 µM
18,"COc1[nH]c(N=Cc2ccccc2)c(C#N)c1C#N [2-methoxy-5-[(phenylmethylene)amino]-1H-pyrrole-3,4-dicarbonitrile]",6.46 µM

row,SMILES,EC50
1,"CC1(C)CC(=O)C2=C(C1)OC(=N)C(C#N)[C@@]21C(=O)N(CC(N)=O)c2ccccc21 (stereo partly drawn) [2-[(4R)-2-amino-3-cyano-2',5-diketo-7,7-dimethyl-spiro[6,8-dihydrochromene-4,3'-indoline]-1'-yl]acetamide]",> 300 µM
2,"CCOc1cc(C=C2SC(Nc3ccc(CC)cc3)=NC2=O)ccc1OCC(=O)O [2-[2-ethoxy-4-[(Z)-[2-(4-ethylanilino)-4-oxo-1,3-thiazol-5-ylidene]methyl]phenoxy]acetic acid]",25.6 µM
3,Cc1ccccc1NN=C1C(=O)N(C)c2ccccc21 [MLS001203477],> 300 µM
4,"CCOc1ccc(N2C(=O)NC(=O)C(=Cc3c[nH]c4ccccc34)C2=O)cc1 [(5E)-1-(4-ethoxyphenyl)-5-(1H-indol-3-ylmethylidene)-1,3-diazinane-2,4,6-trione]",20.9 µM
5,"C/N=c1\ccc2nc3ccccc3n(C)c-2c1 [N,10-dimethyl-2-phenazin-10-iumamine;perchlorate]",20.5 µM
6,COc1cc(C2C3CN(C)CCC3=C(C#N)C(=N)C2(C#N)C#N)ccc1OC(C)C (stereo unspecified) [MLS000034945],> 300 µM
7,COc1ccc(CCN2C(=O)NC(=O)C(=CNc3ccc(NC(C)=O)cc3)C2=O)cc1OC [MLS000332913],> 300 µM
8,"COc1ccc(C2C3=C(CCCC3=O)OC(=N)C2C#N)cc1OC (stereo unspecified) [2-amino-4-(3,4-dimethoxyphenyl)-5-keto-4,6,7,8-tetrahydrochromene-3-carbonitrile]",> 300 µM
9,"COc1cccc(C2C3=C(CCCC3=O)OC(=N)C2C#N)c1OC(=O)c1ccco1 (stereo unspecified) [2-(2-amino-3-cyano-5-oxo-5,6,7,8-tetrahydro-4H-chromen-4-yl)-6-methoxyphenyl 2-furoate]",> 300 µM
10,COc1ccc(N=Cc2cc3c(cc2O)OC(=N)C(C#N)C3c2ccccc2)cc1 (stereo unspecified) [(6E)-2-amino-6-[(4-methoxyanilino)methylidene]-7-oxo-4-phenyl-4H-1-benzopyran-3-carbonitrile],> 300 µM
11,"CC(C)(C)OC(=O)N1CCC2=C(C#N)C(=N)C(C#N)(C#N)[C@H](c3cccnc3)[C@H]2C1 [(8S,8aR)-6-amino-5,7,7-tricyano-8-(3-pyridinyl)-1,3,8,8a-tetrahydroisoquinoline-2-carboxylic acid tert-butyl ester]",61.7 µM
12,Cc1ccc(CN=Nc2ncnc3nc[nH]c23)cc1 [MLS000419179],> 300 µM
13,"N#CC1C(=N)OC2=C(C(=O)CC(c3ccco3)C2)C1c1ccc(OCc2c(F)cccc2Cl)cc1 (stereo unspecified) [2-azanyl-4-[4-[(2-chloranyl-6-fluoranyl-phenyl)methoxy]phenyl]-7-(furan-2-yl)-5-oxidanylidene-4,6,7,8-tetrahydrochromene-3-carbonitrile]",> 300 µM
14,Cc1[nH]n(C(N)=S)c(=O)c1N=Nc1c(Cl)cc([N+](=O)[O-])cc1Cl [SMR000514008],> 300 µM
15,"Cc1ccc(C(=O)Cc2nc3ccccc3oc2=O)cc1 [(3Z)-3-[2-(4-methylphenyl)-2-oxidanylidene-ethylidene]-4H-1,4-benzoxazin-2-one]",> 300 µM
16,"O=C1C(=Nc2ccccc2O)C(Cl)C(=O)N1c1ccccc1 (stereo unspecified) [3-Chloro-4-(2-hydroxy-phenylamino)-1-phenyl-pyrrole-2,5-dione]",> 300 µM
17,CN1C(=O)/C(=C/c2ccc(-c3ccccc3[N+](=O)[O-])o2)S/C1=N/c1ccc(Cl)c(C(=O)O)c1 [2-Chloro-5-[3-methyl-5-[1-[5-(2-nitro-phenyl)-furan-2-yl]-meth-(Z)-ylidene]-4-oxo-thiazolidin-(2Z)-ylideneamino]-benzoic acid],36.3 µM
18,N#CC1C(=N)OC2=C(C(=O)CCC2)C1c1cc2c(cc1Cl)OCO2 (stereo unspecified) [MLS001183950],> 300 µM

# Source: BindingDB's records for doi:10.7270/Q28G8J4C (Broad Institute, 2009)
